Values quoted from earlier work in patent publication US20240280563A1, “SYSTEMS AND METHODS FOR ION CHANNEL KINETICS ANALYSIS IN CLUSTERS OF ION CHANNELS” (Ohio State Innovation Foundation, priority 2023, published 2024).

System: NaVs
Details: disruption of cooperativity with difopein; this and previous studies (Clatot et al. 2017; Zheng and Deschênes 2023)

Q: With difopein as the substance, how does the “effect on whole cell sodium current density” value read?
A: The value was “does not change significantly”.
